The record followed here is patent US8193189B2, “Quinoxaline derivatives as tyrosine kinase activity inhibitors” (Novartis AG, priority 2007, dated 2012).

Test [1] addresses T1, GST-JAK1(866-1154) (Homo sapiens, UniProt P23458).
T1 construct: GST-JAK1(866-1154); made in house
Description: EPK JAK-family kinases profiling assay (Caliper mobility shift), JAK1. It counts as biochemical. As to conditions: ATP 40 μM, 50 nM kinase. A digest of the protocol:
(§1)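 Turnover was read as substrate/product ratio after mobility-shift capillary-like separation of each reaction, run for 60 min at 30 °C with GST-tagged kinase domain, labelled peptide and ATP, and terminated with EDTA stop buffer.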

Test [2] deals with T2, GST-JAK2(808-1132) (Homo sapiens, UniProt O60674).
T2 construct: GST-JAK2(808-1132); purchased Invitrogen (Carlsbad, USA) #4288
Description: EPK JAK-family kinases profiling assay (Caliper mobility shift), JAK2. Type of test: biochemical. As to conditions: ATP 20 μM. An outline of the steps:
as §1

For test [3], the target named is T3, GST-TYK2(888-1187) (Homo sapiens, UniProt P29597).
T3 construct: GST-TYK2(888-1187); made in house
T3 sequence (P29597 888-1187): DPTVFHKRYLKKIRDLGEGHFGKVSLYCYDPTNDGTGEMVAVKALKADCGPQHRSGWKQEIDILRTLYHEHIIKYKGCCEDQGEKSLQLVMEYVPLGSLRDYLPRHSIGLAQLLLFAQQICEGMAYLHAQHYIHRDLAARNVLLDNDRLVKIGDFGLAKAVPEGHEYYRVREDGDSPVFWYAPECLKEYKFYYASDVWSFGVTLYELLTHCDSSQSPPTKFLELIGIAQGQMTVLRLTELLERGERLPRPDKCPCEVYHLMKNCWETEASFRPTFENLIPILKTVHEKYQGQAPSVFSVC
Description: EPK JAK-family kinases profiling assay (Caliper mobility shift), TYK2. It counts as biochemical. As to conditions: ATP 30 μM, 40 nM kinase. An excerpt: All four kinases of the JAK-family kinases were used as purified recombinant GST-fusion proteins, containing the active kinase domains. GST-JAK1(866-1154), GST-JAK3(811-1124), and GST-TYK2(888-1187) were expressed and purified by affinity chromatography at the EPK biology unit. GST-JAK2(808-1132) was purchased from Invitrogen (Carlsbad, USA, #4288).
The kinase assays were based on the Caliper mobility shift assay using the LabChip 3000 systems. This technology is similar to capillary electrophoresis and uses charge driven separation of substrate and product in a microfluidic chip.
All kinase reactions were performed in 384 well microtiter plates in a total reaction volume of 18 μl. The assay plates were prepared with 0.1 μl per well of test compound in the appropriate test concentration, as described under the section “preparation of compound dilutions”. The reactions were started by combining 9 μl of substrate mix (consisting of peptide and ATP) with 9 μl of kinase dilution. The reactions were incubated for 60 minutes at 30° C. and stopped by adding 70 μl of stop buffer (100 mM Hepes, 5% DMSO, 0.1% Coating reagent, 10 mM EDTA, 0.015% Brij 35).
Fluorescently labeled synthetic peptides were used as substrates in all reactions. […] Specific assay conditions are described in Table 1:
The terminated reactions were transferred to the Caliper LabChip 3000 reader and the turnover of each reaction was measured by determining the substrate/product ratio.
Test compounds were dissolved in DMSO (10 mM) and transferred into 1.4 mL flat bottom or V-shaped Matrix tubes carrying a unique 2D matrix chip by individual compound hubs. The numbers of these chips were distinctively linked to the individual compound identification numbers. The stock solutions were stored at −20° C. if not used immediately. For the test procedure the vials were defrosted and identified by a scanner whereby a working sheet was generated that guided the subsequent working steps.
Compound dilutions were made in 96 well plates. This format enabled the assay of maximally 40 individual test compounds at 8 concentrations (single points) including 4 reference compounds. The dilution protocol included the production of pre-dilution plates, master plates and assay plates:
Pre-dilution plates: 96 polypropylene well plates were used as pre-dilution plates. A total of 4 pre-dilution plates were prepared including 10 test compounds each on the plate positions A1-A10, one standard compound at A11 and one DMSO control at A12. All dilution steps were done on a HamiltonSTAR robot.
Master plates: 100 μL of individual compound dilutions including standard compound and controls of the 4 “pre-dilution plates” were transferred into a 384 “master plate” including the following concentrations 1′820, 564, 182, 54.6, 18.2, 5.46, 1.82 and 0.546 μM, respectively in 90% of DMSO.
Assay plates: Identical assay plates were then prepared by pipetting 100 nL each of compound dilutions of the master plates into 384-well “assay plates”. […] The preparation of the master plates were handled by the Matrix PlateMate Plus robot and replication of assay plates by the HummingBird robot.

In test [4] the test system is JAK/STAT pathway (JAK1/JAK2-dependent nuclear translocation of STAT1-GFP). Description: Inhibition of the JAK/STAT pathway: IFN-γ stimulated nuclear translocation of STAT1-GFP in HT1080 fibrosarcoma cells. Type of test: cell-based. As to conditions: Homo sapiens, HT-1080; HT1080 STAT1-GFP cells, 100 ng/ml IFN-γ 2 hours, compound added 30 min before; read-out: STAT1translo IC50. A digest of the protocol:
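Readout is the nuclear-minus-cytoplasmic GFP-STAT1 intensity, imaged at 10× using Hoechst-defined nuclear masks over at least 1000 cells/well. Stably transfected HT1080 fibrosarcoma cells were pretreated 30 min with compound (final 0.003–10 μM, 0.1% DMSO) before IFN-γ challenge.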

Test [5] addresses T4, GST-JAK3(811-1124) (Homo sapiens, UniProt P52333).
T4 construct: GST-JAK3(811-1124); made in house
Nature of the test: EPK JAK-family kinases profiling assay (Caliper mobility shift), JAK3. Type of test: biochemical. As to conditions: ATP 80 μM, 6 nM kinase. An outline of the steps: as §1

T2 sequence (O60674 808-1132): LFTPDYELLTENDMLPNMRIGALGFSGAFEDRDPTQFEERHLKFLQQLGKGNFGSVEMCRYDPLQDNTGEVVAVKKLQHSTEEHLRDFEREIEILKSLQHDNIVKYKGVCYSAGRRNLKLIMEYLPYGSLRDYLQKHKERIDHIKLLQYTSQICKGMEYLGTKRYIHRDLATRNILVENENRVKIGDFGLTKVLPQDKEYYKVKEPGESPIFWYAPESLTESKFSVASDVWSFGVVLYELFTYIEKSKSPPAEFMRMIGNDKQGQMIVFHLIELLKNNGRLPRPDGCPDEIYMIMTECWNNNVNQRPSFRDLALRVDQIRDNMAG
T1 sequence (P23458 866-1154): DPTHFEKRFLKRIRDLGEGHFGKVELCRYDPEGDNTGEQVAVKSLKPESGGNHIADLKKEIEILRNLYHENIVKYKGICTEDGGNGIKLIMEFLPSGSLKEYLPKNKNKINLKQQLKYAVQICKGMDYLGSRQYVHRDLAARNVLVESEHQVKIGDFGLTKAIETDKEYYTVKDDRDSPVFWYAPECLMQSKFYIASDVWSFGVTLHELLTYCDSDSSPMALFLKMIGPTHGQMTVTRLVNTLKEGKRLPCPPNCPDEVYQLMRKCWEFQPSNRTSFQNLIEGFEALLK
T4 sequence (P52333 811-1124): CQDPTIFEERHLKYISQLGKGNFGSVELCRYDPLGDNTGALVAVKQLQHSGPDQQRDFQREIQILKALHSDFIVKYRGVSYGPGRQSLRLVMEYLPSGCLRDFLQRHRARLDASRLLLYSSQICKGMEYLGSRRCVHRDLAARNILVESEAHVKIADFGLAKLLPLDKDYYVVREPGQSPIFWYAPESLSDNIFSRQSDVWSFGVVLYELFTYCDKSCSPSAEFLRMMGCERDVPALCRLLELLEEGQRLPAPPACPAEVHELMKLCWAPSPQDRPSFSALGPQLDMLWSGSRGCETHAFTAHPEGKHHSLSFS

Turning to `CN1CCN(C(=O)c2cccc(-c3cnc4cccc(-c5ccc(CN6CCS(=O)(=O)CC6)cc5)c4n3)c2)CC1` [Example 165, (3-{8-[4-(1,1-Dioxido-thiomorpholin-4-ylmethyl)-phenyl]-quinoxalin-2-yl}-phenyl)-(4-methyl-piperazin-1-yl)-methanone], the IC50 in test [1] came out at 160 nM; in test [2] (1.8 nM kinase), 74 nM; in test [3] it was 1200 nM.
The like results for `Cc1nn(C2CCNCC2)c(C)c1-c1cnc2cccc(-c3cc(F)c(CN4CCOCC4)c(F)c3)c2n1` [Example 155, 8-(3,5-Difluoro-4-morpholin-4-ylmethyl-phenyl)-2-(3,5-dimethyl-1-piperidin-4-yl-1H-pyrazol-4-yl)-quinoxaline] were, in that order, 3400 nM, 63 nM and 7600 nM.
Take `Cc1cc(CN2CCOCC2)ccc1-c1cccc2ncc(-c3cnn(C4CCNCC4)c3)nc12` [Example 147, 8-(2-Methyl-4-morpholin-4-ylmethyl-phenyl)-2-(1-piperidin-4-yl-1H-pyrazol-4-yl)-quinoxaline]: the IC50 in test [1] is 1500 nM; in test [2] (1.8 nM kinase), 97 nM; in test [3] it was 1000 nM.
For `Cc1nn(C2CCNCC2)c(C)c1-c1cnc2cccc(-c3ccc(CN4CCS(=O)(=O)CC4)cc3)c2n1` [Example 157, 2-(3,5-Dimethyl-1-piperidin-4-yl-1H-pyrazol-4-yl)-8-[4-(1,1-dioxido-thiomorpholin-4-ylmethyl)-phenyl]-quinoxaline], in that order: 3600 nM, 140 nM and 6400 nM.
For `COc1ccc(-c2cnc3cccc(-c4cc(F)c(CN5CCS(=O)(=O)CC5)c(F)c4)c3n2)cc1N1CCN(C)CC1` [Example 163, 8-[4-(1,1-Dioxido-thiomorpholin-4-ylmethyl)-3,5-difluoro-phenyl]-2-[4-methoxy-3-(4-methyl-piperazin-1-yl)-phenyl]-quinoxaline], in that order: 77 nM, under 3 nM and 88 nM.
On to `COc1cc(-c2cnc3cccc(-c4ccc(CC(=O)N5CCS(=O)(=O)CC5)cc4)c3n2)cc(OC)c1OC` [Example 13, 1-(1,1-Dioxido-thiomorpholin-4-yl)-2-{4-[3-(3,4,5-trimethoxy-phenyl)-quinoxalin-5-yl]-phenyl}-ethanone], for which the IC50 in test [1] is 27 nM; in test [2] ([…] kinase), 5.1 nM; in test [3], 235 nM.
With `COc1ccc(-c2cnc3cccc(-c4ccc(CN5CCS(=O)(=O)CC5)cc4)c3n2)cc1N1CCN(C)CC1` [Example 161, 8-[4-(1,1-Dioxido-thiomorpholin-4-ylmethyl)-phenyl]-2-[4-methoxy-3-(4-methyl-piperazin-1-yl)-phenyl]-quinoxaline], the IC50 in test [1] was 110 nM; in test [2] (1.8 nM kinase) it was under 3 nM; in test [3], 480 nM.
As to `CN1CCN(C(=O)c2cccc(-c3cnc4cccc(-c5cc(F)c(CN6CCOCC6)c(F)c5)c4n3)c2)CC1` [Example 164, {3-[8-(3,5-Difluoro-4-morpholin-4-ylmethyl-phenyl)-quinoxalin-2-yl]-phenyl}-(4-methyl-piperazin-1-yl)-methanone], the values for the IC50 in test [1], in test [2] (1.8 nM kinase) and in test [3] were 300 nM, 50 nM and 2000 nM, respectively.
The like results for `CC(=O)N1CCC(n2cc(-c3cnc4cccc(-c5cc(F)c(CN6CCOCC6)c(F)c5)c4n3)cn2)CC1` [Example 121, 1-(4-{4-[8-(3,5-Difluoro-4-morpholin-4-ylmethyl-phenyl)-quinoxalin-2-yl]-pyrazol-1-yl}-piperidin-1-yl)-ethanone] were, in that order, 200 nM, 3.8 nM and 230 nM.
For `CN1CCN(C(=O)c2cccc(-c3cnc4cccc(-c5cc(F)c(CN6CCS(=O)(=O)CC6)c(F)c5)c4n3)c2)CC1` [Example 166, (3-{8-[4-(1,1-Dioxido-thiomorpholin-4-ylmethyl)-3,5-difluoro-phenyl]-quinoxalin-2-yl}-phenyl)-(4-methyl-piperazin-1-yl)-methanone], in that order: 70 nM, 11 nM and 270 nM.
The like results for `CC(C)(O)C#Cc1cnc2cccc(-c3cc(F)c(CN4CCS(=O)(=O)CC4)c(F)c3)c2n1` [Example 171, 4-{8-[4-(1,1-Dioxido-thiomorpholin-4-ylmethyl)-3,5-difluoro-phenyl]-quinoxalin-2-yl}-2-methyl-but-3-yn-2-ol] were, in that order, 440 nM, 70 nM and 2000 nM.
`Cc1nn(C2CCNCC2)c(C)c1-c1cnc2cccc(-c3ccc(CN4CCOCC4)cc3)c2n1` [Example 156, 2-(3,5-Dimethyl-1-piperidin-4-yl-1H-pyrazol-4-yl)-8-(4-morpholin-4-ylmethyl-phenyl)-quinoxaline]: the IC50 in test [1] was over 10000 nM; in test [2] (1.8 nM kinase), 950 nM; in test [3], over 10000 nM.
For the compound `O=S1(=O)CCN(Cc2c(F)cc(-c3cccc4ncc(-c5cccc(N6CCNCC6)c5)nc34)cc2F)CC1` [Example 169, 8-[4-(1,1-Dioxido-thiomorpholin-4-ylmethyl)-3,5-difluoro-phenyl]-2-(3-piperazin-1-yl-phenyl)-quinoxaline], the values for the IC50 in test [1], in test [2] (1.8 nM kinase) and in test [3] were 17 nM, under 3 nM and 26 nM, respectively.
With `CN1CCN(C(=O)c2cc(-c3cnc4cccc(-c5cc(F)c(CN6CCS(=O)(=O)CC6)c(F)c5)c4n3)cn2C)CC1` [Example 168, (4-{8-[4-(1,1-Dioxido-thiomorpholin-4-ylmethyl)-3,5-difluoro-phenyl]-quinoxalin-2-yl}-1-methyl-1H-pyrrol-2-yl)-(4-methyl-piperazin-1-yl)-methanone], the IC50 in test [1] is 16 nM; in test [2] (1.8 nM kinase), under 3 nM; in test [3], 30 nM.
The like results for `COc1ccc(-c2cnc3cccc(-c4cc(F)c(CN5CCOCC5)c(F)c4)c3n2)cc1N1CCN(C)CC1` [Example 162, 8-(3,5-Difluoro-4-morpholin-4-ylmethyl-phenyl)-2-[4-methoxy-3-(4-methyl-piperazin-1-yl)-phenyl]-quinoxaline] were, in that order, 69 nM, 5.7 nM and 360 nM.
`Cc1cc(-c2cnc3cccc(-c4ccc(C(=O)N5CCCC5)c(C)c4)c3n2)ccc1C(=O)N1CCCC1` [Example 68, (2-Methyl-4-{3-[3-methyl-4-(pyrrolidine-1-carbonyl)-phenyl]-quinoxalin-5-yl}-phenyl)-pyrrolidin-1-yl-methanone]: the IC50 amounted to 2300 nM in test [1], 109 nM in test [2] (1.8 nM kinase), 4890 nM in test [4] and 6850 nM in test [5].

As a reminder, the IC50 is the concentration needed to halve the response being measured.
